Assay results: article PMC4290489, “Identification of multiple salicylic acid-binding proteins using two high throughput screens” (Frontiers in Plant Science, 2015)

Assays:
Assay type in all cases: binding
[1] = biological target: T1, GPX2 (Arabidopsis thaliana, UniProt O04922); test: SPR competition on 3AESA chip; competition of 4AzSA photo-crosslinking; details: 1-5 mM SA, HBS-EP pH 7.4 (SPR); competes with 3AESA and 4AzSA
T1 construct: N-terminal His6 (pET28a), from E. coli
T1 sequence (O04922 1-169): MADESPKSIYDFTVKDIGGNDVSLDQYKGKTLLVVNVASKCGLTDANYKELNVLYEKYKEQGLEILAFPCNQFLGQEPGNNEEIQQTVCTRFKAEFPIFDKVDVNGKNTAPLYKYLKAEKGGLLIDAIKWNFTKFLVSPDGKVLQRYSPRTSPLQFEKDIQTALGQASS

[2] = biological target: T2, UGE2 (Arabidopsis thaliana, UniProt Q9T0A7); test: as above; details: 1-5 mM SA, HBS-EP pH 7.4 (SPR); competes with 3AESA and 4AzSA
T2 construct: N-terminal His6 (pET28a), from E. coli
T2 sequence (Q9T0A7 1-350): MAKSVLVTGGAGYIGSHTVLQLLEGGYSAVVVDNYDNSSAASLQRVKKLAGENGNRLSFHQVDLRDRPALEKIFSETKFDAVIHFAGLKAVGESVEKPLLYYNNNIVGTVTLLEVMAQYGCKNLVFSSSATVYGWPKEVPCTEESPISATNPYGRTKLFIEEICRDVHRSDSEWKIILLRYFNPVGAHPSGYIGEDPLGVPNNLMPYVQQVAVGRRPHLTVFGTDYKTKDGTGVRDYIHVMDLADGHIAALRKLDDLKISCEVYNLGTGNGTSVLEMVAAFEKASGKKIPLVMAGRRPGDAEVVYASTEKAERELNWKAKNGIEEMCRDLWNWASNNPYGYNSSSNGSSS

[3] = biological target: T3, GSR2 (Arabidopsis thaliana, UniProt Q8LCE1); test: UV photo-crosslinking, anti-SA immunoblot; details: 50 uM 4AzSA, PBS, on ice, 254 nm UV; covalent; competed by SA
T3 construct: gene GLN1-2; N-terminal His6 (pET28a), from E. coli
T3 sequence (Q8LCE1 1-356): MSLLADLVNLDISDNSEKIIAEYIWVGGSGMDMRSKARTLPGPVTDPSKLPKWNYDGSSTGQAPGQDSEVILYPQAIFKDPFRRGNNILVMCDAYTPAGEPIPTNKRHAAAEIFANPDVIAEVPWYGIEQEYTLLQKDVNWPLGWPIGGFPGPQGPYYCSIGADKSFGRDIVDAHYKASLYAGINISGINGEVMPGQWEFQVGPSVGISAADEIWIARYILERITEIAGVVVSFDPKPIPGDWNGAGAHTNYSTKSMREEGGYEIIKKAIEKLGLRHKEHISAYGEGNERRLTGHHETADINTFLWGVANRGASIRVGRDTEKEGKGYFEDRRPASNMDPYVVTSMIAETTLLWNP

Row | Compound | SPR competition on 3AESA chip; competition of 4AzSA photo-crosslinking [1] | SPR competition on 3AESA chip; competition of 4AzSA photo-crosslinking [2] | UV photo-crosslinking, anti-SA immunoblot [3]
1 | O=C(O)c1ccccc1O [SA] | bound 3AESA and crosslinked to 4AzSA in an SA-inhibitable manner, indicating that they are SABPs | bound 3AESA and crosslinked to 4AzSA in an SA-inhibitable manner, indicating that they are SABPs | –
2 | [N-]=[N+]=Nc1ccc(C(=O)O)c(O)c1 [4AzSA] | – | – | bound 3AESA and crosslinked to 4AzSA in an SA-inhibitable manner, indicating that they are SABPs
